Experimental data published in patent publication US20110230481A2, “DERIVATIVES OF TETRABROMOBENZIMIDAZOLE, A PROCESS FOR THE PREPARATION THEREOF, A PHARMACEUTICAL COMPOSITION COMPRISING THE SAME, A METHOD OF USING THE SAME, A METHOD FOR MODULATING OR REGULATING SERINE/THREONINE KINASES, AND SERINE/THREONINE KINASES MODULATING AGENT” (SELVITA S.A., priority 2009, published 2011).
Like-named read-outs stand apart in the source and are kept apart here.

Legend:
[1] = system: human myelomonocytic, biphenotypic leukemia MV4-11 cells; test: Growth inhibition test (MTS); assay type: cell-based; conditions: MV-4-11, 72 hours, read-out: Cytotoxicity in MTS assay (ED50)
Procedure: (§1) Ten thousand cells of human myelomonocytic, biphenotypic leukemia MV4-11 were inoculated into each well of a 96-well microplate (manufactured by Corning Corp.) using Iscove's MDM medium (culture medium) containing 10% fetal calf serum (FCS). The same day, a dimethyl sulfoxide (DMSO) solution of each test compound prepared in a concentration of 10 mmol/L was further diluted with DMSO to the desired concentrations (0.1, 0.5, 1, 2.5, 5 and 10 micromol/L), and the diluted solution was added to each well. The individual wells were further cultured in 5% carbon dioxide at 37° C. for 72 hours. After completion of the culture, 10 μl MTS (3-(4,5-Dimethyl-2-thiazolyl)-5-(carboxymethoxyphenyl)-2-(4-sulfophenyl)-2H-tetrazolium, inner salt assay (CellTiter96® AQueous One Solution Cell Proliferation Assay, Promega) was added to each well, and culturing was performed in 5% carbon dioxide at 37° C. for 2 hours. Using a microplate spectrophotometer (Synergy 2 multi-mode microplate reader (BioTek)), the absorbance of each well was measured at 490 nm. The value for cells not incorporated with a test compound was designated as 100%. By comparing these values with the absorbance difference obtained at the well in which each test compound was added, the cell viability (% viability) after treatment with the test compound was calculated.

[2] = system: human acute lymphocytic leukemia E6.1 Jurkat cells; test: Growth inhibition test (MTS); assay type: cell-based; conditions: 72 hours, read-out: Cytotoxicity in MTS assay (ED50)
Procedure: as §1, with “Twenty” for “Ten”, “acute lumphocytic” for “myelomonocytic, biphenotypic”, “E6.1 Jurkat” for “MV4-11”, “[…]” for “Iscove's MDM”

[3] = system: human colorectal adenocarcinoma SW480 cells; test: Growth inhibition test (MTS); assay type: cell-based; conditions: 72 hours
Procedure: as §1, with “Two” for “Ten”, “colorectal adenocarcinoma SW480” for “myelomonocytic, biphenotypic leukemia MV4-11”, “Corp.), and” for “Corp.)”, “DMEM/Ham's F121:1” for “Iscove's MDM”, “5%” for “10%”

[4] = biological target: CK2α (Homo sapiens, UniProt P68400); test: Radiometric kinase assay (HotSpot)
[5] = biological target: PIM1 (Homo sapiens, UniProt P11309); test: Radiometric kinase assay (HotSpot); conditions: for Selectivity for Pim-1 over CK2α: ratio of IC50 values
[6] = system: human prostate adenocarcinoma PC3 cells; test: Growth inhibition test (MTS); assay type: cell-based; conditions: PC-3; 72 hours
Procedure: as §1, with “Two” for “Ten”, “prostate adenocarcinoma PC3” for “myelomonocytic, biphenotypic leukemia MV4-11”, “Corp.), and” for “Corp.)”, “F12K (Ham's F12:[…] 1:1)” for “Iscove's MDM”

[7] = read-out: Inhibitory activity (IC50 in nM) in radiometric cell free assay, CK2α, ATP 1 μM, peptide 20 μM
[8] = read-out: Inhibitory activity (IC50 in nM) in radiometric cell free assay, Pim-1, ATP 1 μM, peptide 5 μM

Chain of CK2α (P68400 whole entry): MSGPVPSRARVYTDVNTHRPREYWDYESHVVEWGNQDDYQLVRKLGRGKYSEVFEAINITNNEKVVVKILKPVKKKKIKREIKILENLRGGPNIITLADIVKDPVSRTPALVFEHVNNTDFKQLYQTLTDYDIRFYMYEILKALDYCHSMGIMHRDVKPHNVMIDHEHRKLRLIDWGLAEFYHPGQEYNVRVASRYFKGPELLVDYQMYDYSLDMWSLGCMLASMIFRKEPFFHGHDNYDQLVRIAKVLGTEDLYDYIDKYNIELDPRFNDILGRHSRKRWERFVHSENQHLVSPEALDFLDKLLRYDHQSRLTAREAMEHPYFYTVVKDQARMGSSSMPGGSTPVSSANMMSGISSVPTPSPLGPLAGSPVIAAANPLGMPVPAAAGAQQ
Chain of PIM1 (P11309 whole entry): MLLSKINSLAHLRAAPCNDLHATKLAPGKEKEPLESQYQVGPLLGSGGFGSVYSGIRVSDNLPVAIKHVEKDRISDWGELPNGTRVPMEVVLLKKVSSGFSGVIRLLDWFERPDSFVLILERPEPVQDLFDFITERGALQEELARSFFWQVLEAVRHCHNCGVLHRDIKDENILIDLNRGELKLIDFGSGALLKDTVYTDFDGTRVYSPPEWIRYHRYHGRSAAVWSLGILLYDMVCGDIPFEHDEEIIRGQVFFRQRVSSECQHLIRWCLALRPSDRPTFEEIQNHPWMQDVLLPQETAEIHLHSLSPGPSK

| IC50 [4] [nM] | IC50 [5] [nM] | Structure (SMILES) | IC50 ([1]; Homo sapiens, MV4-11) [nM] | IC50 ([2]; Homo sapiens) [nM] | Cytotoxicity in MTS assay (ED50) [3] [nM] | Selectivity for Pim-1 over CK2α [5] | Cytotoxicity in MTS assay (ED50) [6] [nM] | IC50 [1] [nM] | IC50 [2] [nM] | IC50 [4, 7] [nM] | IC50 [5, 8] [nM] |
| --- | --- | --- | --- | --- | --- | --- | --- | --- | --- | --- | --- |
| 2260 | 23.1 | Brc1c(Br)c(Br)c2[nH]c(NCCN3CCCCC3)nc2c1Br [Compound 13, 4,5,6,7-tetrabromo-N-(2-(piperidin-1-yl)ethyl)-1H-benzo[d]imidazol-2-amine] | 3160 | 1340 | – | 98.2 | 5190 | – | – | – | – |
| 833 | 43.8 | Brc1c(Br)c(Br)c2[nH]c(NCCN3CCCC3)nc2c1Br [Compound 14, 4,5,6,7-tetrabromo-N-(2-(pyrrolidin-1-yl)ethyl)-1H-benzo[d]imidazol-2-amine] | 1290 | 2650 | – | 19.0 | 5470 | – | – | – | – |
| 6880 | 67.7 | Brc1c(Br)c(Br)c2[nH]c(NCCN3CCOCC3)nc2c1Br [Compound 16, 4,5,6,7-tetrabromo-N-(2-morpholinoethyl)-1H-benzo[d]imidazol-2-amine] | 2170 | 2460 | – | 101.6 | >10000 | – | – | – | – |
| 1830 | 66.1 | CN1CCN(c2nc3c(Br)c(Br)c(Br)c(Br)c3[nH]2)CC1 [Compound 21, 4,5,6,7-tetrabromo-2-(4-methylpiperazin-1-yl)-1H-benzo[d]imidazole] | 3780 | 2630 | – | 27.6 | >10000 | – | – | – | – |
| – | – | Brc1c(Br)c(Br)c2c(Br)n[nH]c2c1Br [Compound K64, reference compound] | – | – | 9130 | 2.1 | >10000 | >10000 | >10000 | 637 | 308 |
| – | – | CN(C)c1nc2c(Br)c(Br)c(Br)c(Br)c2n1CC(=O)O [Compound K66, reference compound] | – | – | >10000 | 1.1 | >10000 | >10000 | >10000 | 206 | 194 |
| – | – | CN(C)c1nc2c(Br)c(Br)c(Br)c(Br)c2[nH]1 [DMAT, reference compound] | – | – | – | – | >10000 | 3150 | 8180 | – | 64.6 |
| – | – | Brc1c(Br)c(Br)c2[nH]nnc2c1Br [TBB, reference compound] | – | – | >10000 | – | >10000 | >10000 | >10000 | – | 1840 |
| – | – | Brc1c(Br)c(Br)c2[nH]cnc2c1Br [TBI, reference compound] | – | – | 7210 | – | >10000 | >10000 | >10000 | – | 1670 |

| Structure (SMILES) | IC50 [4] [nM] | IC50 [5] [nM] | IC50 ([1]; Homo sapiens, MV4-11) [nM] | IC50 ([2]; Homo sapiens) [nM] | Cytotoxicity in MTS assay (ED50) [3] [nM] | Selectivity for Pim-1 over CK2α [5] | Cytotoxicity in MTS assay (ED50) [6] [nM] | IC50 [1] [nM] | IC50 [2] [nM] | IC50 [4, 7] [nM] | IC50 [5, 8] [nM] |
| --- | --- | --- | --- | --- | --- | --- | --- | --- | --- | --- | --- |
| NCCCNc1nc2c(Br)c(Br)c(Br)c(Br)c2[nH]1 [Compound 11, N-(3-aminopropyl)-4,5,6,7-tetrabromo-1H-benzo[d]imidazol-2-amine] | 1020 | 4.8 | 1780 | 1750 | 3460 | 211.7 | 7320 | – | – | – | – |
| Brc1c(Br)c(Br)c2[nH]c(N3CCNCC3)nc2c1Br [Compound 20, 4,5,6,7-tetrabromo-2-(piperazin-1-yl)-1H-benzo[d]imidazole] | 132 | 76.9 | 790 | 2190 | 4910 | 1.7 | 6610 | – | – | – | – |
